ChEMBL document CHEMBL4354859, “Dimerization of α-Conotoxins as a Strategy to Enhance the Inhibition of the Human α7 and α9α10 Nicotinic Acetylcholine Receptors” (J Med Chem, 2020)
Active and inactive are the calls of the source. No cut-off for these calls is given here. Numbered stars: 1 amine (or outer) side, 2 acyl side, 3 side chain; on linkers, the order of the positions; unused ones are H or OH. Bridge positions count the residues as written; N and C are the ends. Square brackets hold non-standard residues; d marks the D form. Peptide text beside a SMILES is read from it. I, II: the chains in the order shown. ξ: configuration not given here. X1 = O=C(CCOCCOCCOCCOCCOCCOCCOCCOCCOCCn1cc(CCCC(=O)[*:2])nn1)[*:1]; ξK = NCCCCC(N)C(=O)O

How the values were obtained:
[1] = molecular target: T1, Neuronal acetylcholine receptor; alpha9/alpha10 (Homo sapiens, UniProt Q9GZZ6+Q9UGM1); assay: Inhibition of human alpha9alpha10 nAChR expressed in Xenopus laevis oocytes assessed as inhibition of ACh-evoked currents by two-electrode voltage clamp assay; format: cell-based
[2] = molecular target: T2, Neuronal acetylcholine receptor subunit alpha-7 (Homo sapiens, UniProt P36544); assay: Inhibition of human alpha7 nAChR expressed in Xenopus laevis oocytes assessed as inhibition of ACh-evoked currents by two-electrode voltage clamp assay; format: cell-based
[3] = molecular target: T2, Neuronal acetylcholine receptor subunit alpha-7; assay: Inhibition of human alpha7 nAChR expressed in Xenopus laevis oocytes assessed as inhibition of ACh-evoked currents at 1 uM by two-electrode voltage clamp assay relative to control; format: cell-based
[4] = molecular target: T3, Neuronal acetylcholine receptor; alpha9/alpha10 (Homo sapiens) (UniProt Q9UGM1+Q9GZZ6); assay: Reversible inhibition of human alpha9alpha10 nAChR expressed in Xenopus laevis oocytes assessed as inhibition of ACh-evoked currents by two-electrode voltage clamp assay; format: cell-based
[5] = molecular target: T2, Neuronal acetylcholine receptor subunit alpha-7; assay: Reversible inhibition of human alpha7 nAChR expressed in Xenopus laevis oocytes assessed as inhibition of ACh-evoked currents by two-electrode voltage clamp assay; format: cell-based
[6] = molecular target: T1, Neuronal acetylcholine receptor; alpha9/alpha10; assay: Inhibition of human alpha9alpha10 nAChR expressed in Xenopus laevis oocytes expressing alpha9:alpha10 mRNA injection ratio of 1:3 assessed as inhibition of ACh-evoked currents by two-electrode voltage clamp assay; format: cell-based
[7] = molecular target: T4, Neuronal acetylcholine receptor; alpha3/beta2 (Homo sapiens) (UniProt P17787+P32297); assay: Inhibition of human alpha3beta2 nAChR expressed in Xenopus laevis oocytes assessed as inhibition of ACh-evoked currents at 100 nM by two-electrode voltage clamp assay; format: cell-based
[8] = molecular target: T5, Neuronal acetylcholine receptor; alpha4/beta2 (Homo sapiens) (UniProt P17787+P43681); assay: Inhibition of human alpha4beta2 nAChR expressed in Xenopus laevis oocytes assessed as inhibition of ACh-evoked currents at 100 nM by two-electrode voltage clamp assay; format: cell-based
[9] = molecular target: T6, Neuronal acetylcholine receptor; alpha3/beta4 (Homo sapiens) (UniProt P30926+P32297); assay: Inhibition of human alpha3beta4 nAChR expressed in Xenopus laevis oocytes assessed as inhibition of ACh-evoked currents at 100 nM by two-electrode voltage clamp assay; format: cell-based
[10] = molecular target: T4, Neuronal acetylcholine receptor; alpha3/beta2 (Homo sapiens); assay: Inhibition of human alpha3beta2 nAChR expressed in Xenopus laevis oocytes assessed as inhibition of ACh-evoked currents at 1 uM by two-electrode voltage clamp assay relative to control; format: cell-based
[11] = molecular target: T5, Neuronal acetylcholine receptor; alpha4/beta2 (Homo sapiens); assay: Inhibition of human alpha4beta2 nAChR expressed in Xenopus laevis oocytes assessed as inhibition of ACh-evoked currents at 1 uM by two-electrode voltage clamp assay; format: cell-based
[12] = molecular target: T6, Neuronal acetylcholine receptor; alpha3/beta4 (Homo sapiens); assay: Inhibition of human alpha3beta4 nAChR expressed in Xenopus laevis oocytes assessed as inhibition of ACh-evoked currents at 1 uM by two-electrode voltage clamp assay; format: cell-based
[13] = molecular target: T3, Neuronal acetylcholine receptor; alpha9/alpha10 (Homo sapiens); assay: Inhibition of human alpha9alpha10 nAChR expressed in Xenopus laevis oocytes assessed as inhibition of ACh-evoked currents at 100 nM by two-electrode voltage clamp assay; format: cell-based
[14] = molecular target: T3, Neuronal acetylcholine receptor; alpha9/alpha10 (Homo sapiens); assay: Inhibition of human alpha9alpha10 nAChR expressed in Xenopus laevis oocytes assessed as inhibition of ACh-evoked currents at 1 uM by two-electrode voltage clamp assay; format: cell-based
[15] = molecular target: Neuronal acetylcholine receptor subunit alpha-7 (Rattus norvegicus, UniProt Q05941); assay: Inhibition of rat alpha7 nAChR
Sequence of Neuronal acetylcholine receptor subunit alpha-7 (Rattus norvegicus, UniProt Q05941) (Q05941 whole entry): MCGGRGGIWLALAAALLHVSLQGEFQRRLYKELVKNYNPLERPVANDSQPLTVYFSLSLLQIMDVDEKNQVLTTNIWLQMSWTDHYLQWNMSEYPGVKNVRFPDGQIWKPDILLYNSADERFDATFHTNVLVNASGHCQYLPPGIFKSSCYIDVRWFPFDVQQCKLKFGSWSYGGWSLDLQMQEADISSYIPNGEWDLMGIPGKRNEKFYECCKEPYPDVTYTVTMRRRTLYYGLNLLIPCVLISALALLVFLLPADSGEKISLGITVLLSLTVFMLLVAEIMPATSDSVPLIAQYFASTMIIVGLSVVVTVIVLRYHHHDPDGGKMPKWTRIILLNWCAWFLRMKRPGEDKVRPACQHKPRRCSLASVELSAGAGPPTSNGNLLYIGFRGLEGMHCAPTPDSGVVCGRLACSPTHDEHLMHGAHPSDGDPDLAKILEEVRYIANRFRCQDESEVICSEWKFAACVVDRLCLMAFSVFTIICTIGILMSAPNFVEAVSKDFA

T1 sequence (Q9UGM1 whole entry): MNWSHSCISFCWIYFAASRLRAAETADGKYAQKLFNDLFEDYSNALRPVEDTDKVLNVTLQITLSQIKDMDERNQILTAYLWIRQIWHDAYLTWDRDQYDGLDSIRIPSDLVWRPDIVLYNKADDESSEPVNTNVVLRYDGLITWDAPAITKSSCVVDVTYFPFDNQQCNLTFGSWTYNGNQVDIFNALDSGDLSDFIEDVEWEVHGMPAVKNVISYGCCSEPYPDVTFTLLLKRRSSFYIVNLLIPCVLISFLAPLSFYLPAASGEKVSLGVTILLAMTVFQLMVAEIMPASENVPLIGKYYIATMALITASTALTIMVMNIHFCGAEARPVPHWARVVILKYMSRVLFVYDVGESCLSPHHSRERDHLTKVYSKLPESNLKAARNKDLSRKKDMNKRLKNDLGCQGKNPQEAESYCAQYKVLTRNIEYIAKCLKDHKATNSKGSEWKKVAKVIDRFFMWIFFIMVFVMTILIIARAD
T1 sequence (Q9GZZ6 whole entry): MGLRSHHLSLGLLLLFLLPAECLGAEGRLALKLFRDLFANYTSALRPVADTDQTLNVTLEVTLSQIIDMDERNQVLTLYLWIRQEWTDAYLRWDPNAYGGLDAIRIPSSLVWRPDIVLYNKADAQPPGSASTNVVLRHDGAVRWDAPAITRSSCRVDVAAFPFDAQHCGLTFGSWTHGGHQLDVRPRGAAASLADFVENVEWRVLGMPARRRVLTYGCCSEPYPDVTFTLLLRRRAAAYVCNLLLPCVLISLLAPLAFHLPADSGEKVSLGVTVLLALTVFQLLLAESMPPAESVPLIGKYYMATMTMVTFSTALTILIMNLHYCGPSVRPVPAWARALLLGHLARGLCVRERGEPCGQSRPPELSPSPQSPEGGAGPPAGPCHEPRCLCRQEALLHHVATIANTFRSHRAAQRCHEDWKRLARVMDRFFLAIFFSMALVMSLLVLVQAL
T2 sequence (P36544 whole entry): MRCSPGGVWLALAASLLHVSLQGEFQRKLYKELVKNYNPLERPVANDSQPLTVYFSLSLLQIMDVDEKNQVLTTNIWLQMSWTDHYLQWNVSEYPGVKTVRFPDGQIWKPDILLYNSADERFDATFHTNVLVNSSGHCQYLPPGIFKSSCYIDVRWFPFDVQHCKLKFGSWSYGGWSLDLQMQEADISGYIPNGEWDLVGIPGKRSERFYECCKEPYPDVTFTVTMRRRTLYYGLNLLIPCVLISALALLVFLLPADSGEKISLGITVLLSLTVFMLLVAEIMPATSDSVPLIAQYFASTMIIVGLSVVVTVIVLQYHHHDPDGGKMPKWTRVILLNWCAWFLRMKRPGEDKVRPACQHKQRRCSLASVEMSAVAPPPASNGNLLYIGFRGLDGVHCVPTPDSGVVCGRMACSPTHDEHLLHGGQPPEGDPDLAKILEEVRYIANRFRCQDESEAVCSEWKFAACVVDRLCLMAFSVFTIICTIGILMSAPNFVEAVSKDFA

SMILES | IC50 [1] | IC50 [2] | inhibition [4] | inhibition [5] | other results
CC[C@H](C)[C@@H]1NC(=O)[C@H](CCC(=O)O)NC(=O)[C@@H]2CCCN2C(=O)[C@H](Cc2cnc[nH]2)NC(=O)[C@H](CC(=O)O)NC(=O)[C@H](Cc2ccc(O)cc2)NC(=O)[C@H](CC(N)=O)NC(=O)[C@@H]2CSSC[C@H](NC(=O)CN)C(=O)N[C@@H](CSSC[C@@H](C(N)=O)NC1=O)C(=O)N[C@@H](CO)C(=O)N[C@@H](CC(=O)O)C(=O)N1CCC[C@H]1C(=O)N[C@@H](CCCNC(=N)N)C(=O)N2 | 1000 nM | > 10000 nM | – | – | –
C[C@@H]1NC(=O)[C@@H]2CSSC[C@H](NC(=O)CN)C(=O)N[C@@H](CSSC[C@@H](C(N)=O)NC(=O)[C@H](CCCNC(=N)N)NC(=O)[C@H](Cc3c[nH]c4ccccc34)NC1=O)C(=O)N[C@@H](CO)C(=O)N[C@@H](CC(=O)O)C(=O)N1CCC[C@H]1C(=O)N[C@@H](CCCNC(=N)N)C(=O)N2 | – | 1000 nM | – | – | –
N=C(N)NCCC[C@@H]1NC(=O)[C@H](Cc2ccc(O)cc2)NC(=O)[C@H](CCCNC(=N)N)NC(=O)[C@@H]2CSSC[C@H](NC(=O)CN)C(=O)N[C@@H](CSSC[C@@H](C(N)=O)NC1=O)C(=O)N[C@@H](CO)C(=O)N[C@@H](CC(=O)O)C(=O)N1CCC[C@H]1C(=O)N[C@@H](CCCNC(=N)N)C(=O)N2 (H-GCCSDPRCRYRC-NH2; disulfide 2-8, 3-12) | 249 nM | > 1000 nM | – | – | inhibition [3]: 20%
CC(C)C[C@@H]1NC(=O)[C@H](CCC(=O)O)NC(=O)[C@@H]2CCCN2C(=O)[C@H](Cc2cnc[nH]2)NC(=O)[C@H](CC(N)=O)NC(=O)[C@H](C(C)C)NC(=O)[C@H](CO)NC(=O)[C@@H]2CSSC[C@H](NC(=O)CNC(=O)CCOCCOCCOCCOCCOCCOCCOCCOCCOCCn3cc(CCCC(=O)NCCCCC(NC(=O)CCCc4cn(CCOCCOCCOCCOCCOCCOCCOCCOCCOCCC(=O)NCC(=O)N[C@H]5CSSC[C@@H]6NC(=O)[C@H](C)NC(=O)[C@@H]7CCCN7C(=O)[C@H](Cc7cnc[nH]7)NC(=O)[C@H](CO)NC(=O)[C@H](CSSC[C@@H](C(N)=O)NC(=O)[C@H](CC(C)C)NC(=O)[C@H](CCC(=O)O)NC(=O)[C@@H]7CCCN7C(=O)[C@H](Cc7cnc[nH]7)NC(=O)[C@H](CC(N)=O)NC(=O)[C@H](C(C)C)NC(=O)[C@H](CO)NC6=O)NC5=O)nn4)C(=O)NCC(=O)N[C@@H](CCCNC(=N)N)C(=O)N[C@@H](CCCNC(=N)N)C(=O)N[C@@H](CCCNC(=N)N)C(=O)N[C@@H](CCCNC(=N)N)C(=O)NCC(N)=O)nn3)C(=O)N[C@@H](CSSC[C@@H](C(N)=O)NC1=O)C(=O)N[C@@H](CO)C(=O)N[C@@H](Cc1cnc[nH]1)C(=O)N1CCC[C@H]1C(=O)N[C@@H](C)C(=O)N2 (some centres undefined) (I: GCCSHPACSVNHPELC-NH2 / II: GCCSHPACSVNHPELC-NH2 / III: [ξK]GRRRRG-NH2; disulfide I:2-I:8, I:3-I:16, II:2-II:8, II:3-II:16; linker I:N-III:1, II:N-III:N via X1) | 1.9 nM | 354 nM | Dose-dependent effect | Dose-dependent effect | –
CC[C@H](C)[C@@H]1NC(=O)[C@H](CCC(=O)O)NC(=O)[C@@H]2CCCN2C(=O)[C@H](Cc2cnc[nH]2)NC(=O)[C@H](CC(=O)O)NC(=O)[C@H](Cc2ccc(O)cc2)NC(=O)[C@H](CC(N)=O)NC(=O)[C@@H]2CSSC[C@H](NC(=O)CNC(=O)CCOCCOCCOCCOCCOCCOCCOCCOCCOCCn3cc(CCCC(=O)NCCCCC(NC(=O)CCCc4cn(CCOCCOCCOCCOCCOCCOCCOCCOCCOCCC(=O)NCC(=O)N[C@H]5CSSC[C@@H]6NC(=O)[C@H](CCCNC(=N)N)NC(=O)[C@@H]7CCCN7C(=O)[C@H](CC(=O)O)NC(=O)[C@H](CO)NC(=O)[C@H](CSSC[C@@H](C(N)=O)NC(=O)[C@H]([C@@H](C)CC)NC(=O)[C@H](CCC(=O)O)NC(=O)[C@@H]7CCCN7C(=O)[C@H](Cc7cnc[nH]7)NC(=O)[C@H](CC(=O)O)NC(=O)[C@H](Cc7ccc(O)cc7)NC(=O)[C@H](CC(N)=O)NC6=O)NC5=O)nn4)C(=O)NCC(=O)N[C@@H](CCCNC(=N)N)C(=O)N[C@@H](CCCNC(=N)N)C(=O)N[C@@H](CCCNC(=N)N)C(=O)N[C@@H](CCCNC(=N)N)C(=O)NCC(N)=O)nn3)C(=O)N[C@@H](CSSC[C@@H](C(N)=O)NC1=O)C(=O)N[C@@H](CO)C(=O)N[C@@H](CC(=O)O)C(=O)N1CCC[C@H]1C(=O)N[C@@H](CCCNC(=N)N)C(=O)N2 (some centres undefined) | 266 nM | > 10000 nM | Dose-dependent effect | Dose-dependent effect | –
CC(C)C[C@@H]1NC(=O)[C@H](CCC(=O)O)NC(=O)[C@@H]2CCCN2C(=O)[C@H](Cc2cnc[nH]2)NC(=O)[C@H](CC(N)=O)NC(=O)[C@H](C(C)C)NC(=O)[C@H](CO)NC(=O)[C@@H]2CSSC[C@H](NC(=O)CN)C(=O)N[C@@H](CSSC[C@@H](C(N)=O)NC1=O)C(=O)N[C@@H](CO)C(=O)N[C@@H](Cc1cnc[nH]1)C(=O)N1CCC[C@H]1C(=O)N[C@@H](C)C(=O)N2 (H-GCCSHPACSVNHPELC-NH2; disulfide 2-8, 3-16) | – | > 10000 nM | – | – | –
N=C(N)NCCC[C@H](NC(=O)CNC(=O)C(CCCCNC(=O)CCCc1cn(CCOCCOCCOCCOCCOCCOCCOCCOCCOCCC(=O)NCC(=O)N[C@H]2CSSC[C@@H]3NC(=O)[C@H](CCCNC(=N)N)NC(=O)[C@@H]4CCCN4C(=O)[C@H](CC(=O)O)NC(=O)[C@H](CO)NC(=O)[C@H](CSSC[C@@H](C(N)=O)NC(=O)[C@H](CCCNC(=N)N)NC(=O)[C@H](Cc4ccc(O)cc4)NC(=O)[C@H](CCCNC(=N)N)NC3=O)NC2=O)nn1)NC(=O)CCCc1cn(CCOCCOCCOCCOCCOCCOCCOCCOCCOCCC(=O)NCC(=O)N[C@H]2CSSC[C@@H]3NC(=O)[C@H](CCCNC(=N)N)NC(=O)[C@@H]4CCCN4C(=O)[C@H](CC(=O)O)NC(=O)[C@H](CO)NC(=O)[C@H](CSSC[C@@H](C(N)=O)NC(=O)[C@H](CCCNC(=N)N)NC(=O)[C@H](Cc4ccc(O)cc4)NC(=O)[C@H](CCCNC(=N)N)NC3=O)NC2=O)nn1)C(=O)N[C@@H](CCCNC(=N)N)C(=O)N[C@@H](CCCNC(=N)N)C(=O)N[C@@H](CCCNC(=N)N)C(=O)NCC(N)=O (some centres undefined) (I: GCCSDPRCRYRC-NH2 / II: GCCSDPRCRYRC-NH2 / III: [ξK]GRRRRG-NH2; disulfide I:2-I:8, I:3-I:12, II:2-II:8, II:3-II:12; linker I:N-III:1, II:N-III:N via X1) | 38.5 nM | 63.1 nM | Dose-dependent effect | Dose-dependent effect | IC50 [6]: 117 nM; inhibition [7]: Active; inhibition [8]: inactive; inhibition [9]: inactive; inhibition [10]: 60%; inhibition [11]: inactive; inhibition [12]: inactive; inhibition [13]: Active; inhibition [14]: Active
N=C(N)NCCC[C@H](NC(=O)[C@@H]1CSSC[C@@H]2NC(=O)[C@@H](NC(=O)CN)CSSC[C@H](NC(=O)[C@H](CCCNC(=N)N)NC(=O)[C@@H]3CCCN3C(=O)[C@H](CC(=O)O)NC(=O)[C@H](CO)NC2=O)C(=O)N[C@@H](CCCNC(=N)N)C(=O)N[C@@H](Cc2ccc(O)cc2)C(=O)N[C@@H](CCCNC(=N)N)C(=O)N1)C(=O)O | – | – | – | – | IC50 [15]: 4660 nM
